A short description of the series: Storage stability of the crystalline form. Type of series: physicochemical. The text has this:
The compound of the formula (I) is generally micronized and formulated in pharmacy.

Molecules are shown by their SMILES. Where a name gives a salt, the structure may show the parent alone.

For `C[C@H](N)C(=O)N[C@@H](C)C(=O)OCCOc1ccc(-c2c(C#N)c(SCc3csc(-c4ccc(Cl)cc4)n3)nc(N3CCCC3)c2C#N)cc1` [2-{4-[2-({[2-(4-chlorophenyl)-1,3-thiazol-4-yl]methyl}sulphanyl)-3,5-dicyano-6-(pyrrolidin-1-yl)pyridin-4-yl]phenoxy}ethyl-L-alanyl L-alaninate monohydrochloride], the stability properties result (even at high atmospheric humidity) is “very good stability properties”. Further, for the setting “storage time”, the “can be stored without any problem” value is listed as over 2 years.
